Data from patent publication US5034548A, “Steroid derivatives useful as hypocholesterolemics” (E. I. Du Pont de Nemours and Company, priority 1990, dated 1991).

Assays:
[1] = target: T1, Lanosta-8,24-dien-3β-ol 14α-methyl demethylase (Rattus norvegicus, UniProt Q64654); test: Lanosta-8,24-dien-3β-ol 14α-Methyl Demethylase Inhibition Assay; type: biochemical; details: rat hepatic microsomal preparations, 100 μM lanost-8-en-3β-ol substrate, pH not given; test compounds 0 to 100 μM
T1 construct: determined in rat depatic microsomal preparations; from tissue; host or cells: rat hepatic microsomes
T1 sequence (Q64654 1-503): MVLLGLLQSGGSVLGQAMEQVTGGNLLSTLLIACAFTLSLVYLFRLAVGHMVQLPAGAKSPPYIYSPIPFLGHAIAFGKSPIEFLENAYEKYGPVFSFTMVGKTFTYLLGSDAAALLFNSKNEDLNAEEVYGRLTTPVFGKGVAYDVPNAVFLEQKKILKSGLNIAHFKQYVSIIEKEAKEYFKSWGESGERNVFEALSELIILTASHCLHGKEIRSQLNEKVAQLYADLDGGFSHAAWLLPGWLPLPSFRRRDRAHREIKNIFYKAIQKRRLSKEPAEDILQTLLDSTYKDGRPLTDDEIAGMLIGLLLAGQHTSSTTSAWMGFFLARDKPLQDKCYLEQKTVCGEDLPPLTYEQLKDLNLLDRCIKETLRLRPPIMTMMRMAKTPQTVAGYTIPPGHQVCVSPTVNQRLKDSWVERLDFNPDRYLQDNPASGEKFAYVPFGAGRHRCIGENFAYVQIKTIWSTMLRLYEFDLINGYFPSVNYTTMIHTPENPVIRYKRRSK
Procedure: Lanosta-8,24-dien-3β-ol 14α-methyl demethylase activity was determined in rat depatic microsomal preparations as described in Trzaskos et al., J. Biol. Chem., 261, 16937-16942 (1986). Specifically, test compounds were added to assay mixtures as detergent suspensions with substrate employing 5 mg Triton WR-1339, 100 μM lanost-8-en-3β-ol substrate, and test compounds ranging from 0 to 100 μM. The inhibitor/substrate/detergent suspension was incubated with 2 mg microsomal protein for 5 min at 37° followed by a 10 min incubation initiated by the addition of cofactors required for the reaction. […] Inhibition values are expressed as the amount of compound required to inhibit lanosta-8,24-dien-3β-ol 14α-methyldemethylase activity by 50% relative to that of the controls.

[2] = Lowering blood (plasma) cholesterol levels in hamsters; type: in vivo, Male Golden Syrian hamsters; details: 0.2% (w/w) in diet, 7 days, N = 16, means±SEM
Procedure: Male Golden Syrian hamsters (50-60 grams) were obtained from Charles River, Inc. (Wilmington, Mass.). Animals were housed in individual suspension cages and were maintained on a light cycle consisting of 12 hours of light followed by 12 hours of dark. Animals were allowed free access to water and feed (Agway ground chow, RMH 3200, Agway, Syracuse, N.Y.) containing 1% (w/w) corn oil) for a minimum of 4 weeks. Following this stabilization period a sample of blood was collected by orbital sinus bleeding under light ether anesthesia into heparinized capillary tubes. Plasma was separated by centrifugation (600×g for 10 minutes) and plasma cholesterols were determined by an autoanalyzer (Centrifichem 600, Baker Instruments, Allentown, Pa.). Based upon measured plasma cholesterol values, the animals were randomized into two groups such that the mean plasma cholesterol values were identical for both groups.
Animals in the two groups were then placed on one of two diets: (1) Diet A, consisting of ground chow plus 1% (w/w) corn oil, as described above; or (2) Diet B, consisting of Diet A plus 0.2% (w/w) of a test compound. Animals on Diet B, the treated animals, were allowed free access to feed and water, while animals on Diet A were pair-matched with Diet B animals and served as pair-fed controls. […] Total plasma cholesterol levels were determined as described above. […]

[3] = tested on: 3-Hydroxy-3-Methylglutaryl Coenzyme A Reductase (HMGR); test: HMGR Suppression Assay in digitonin-permeabilized CHO cells; type: cell-based, Chinese Hamster; details: 6 hr incubation at 37°, amount to suppress HMGR activity by 50% relative to controls
Procedure: The ability of the compounds of Formula I to suppress the activity of HMGR, the rate limiting enzyme of cholesterol biosynthesis, was tested as follows. Chinese Hamster Ovary (CHO) cells were divided twice weekly and were maintained in McCoy's 5A medium supplemented with 1% Cab-O-Sil delipidated Fetal Bovine Serum (FBS) (obtained from Gibco Laboratories, Chagrin Falls, Ohio). Cells were harvested during the logarithmic phase of growth and cell cultures were prepared by adding 0.5×10^6 cells to wash well in a 24 well cluster dish (obtained from Costar, Data Packaging Corp., Cambridge, Mass.) employing 1 mL of the above medium per each well. […] Control cells were treated in an identical fashion to those which received test compound, except they were incubated with the BSA and ethanol suspension only.
Specifically, the medium in each well was aspirated and the cells rinsed with a 50 mM solution of phosphate buffered saline (PBS). One mL of 30 μg/mL of digitonin in CSK buffer (prepared using 10 mM Pipes [piperazine-N,N'-bis(2-ethansulfonic)acid'], 100 mM KCl, 2.5 mM MgCl2, 300 mM sucrose, 1 mM EGTA, pH 6.8) was added to each well and incubated for 10 min at 22° to permeabilize the cells. The buffer was carefully aspirated and the wells were rinsed twice each time with 1 mL of PBS. HMGR activity was measured directly by adding 75 μL of PIB buffer (50 mM potassium phosphate, 1 mM Na2 EDTA, 10 mM dithiothreitol, pH 7.4) to each well and incubating the cells for 30 minutes at 37° as described above. […] HMG-Coenzyme A (15 DPM/pmol), pH 7.4. The assay mixture was incubated for 30 min at 37° and terminated by the addition of 70 μL of [^3 H]-mevalonic acid (35,000 DPM/assay), 0.15 mg/mL in 3 N HCl. The reaction was left to lactonize for an additional 30 min at 37° or overnight at room temperature.
Reaction products were separated by thin layer chromatography on silica gel G (obtained from Analtech, Newark, Del.) developed in an unsaturated environment with acetone:benzene (3:2, v:v). The band corresponding to mevalonolactone was identified by exposure to iodine vapor and was scraped into counting vials. The extent of conversion of starting substrate, HMG-CoA, to mevalonic acid was determined by liquid scintillation counting in Biofluor (obtained from New England Nuclear, Boston, Mass). Corrections for recovery and blank values were made for each sample. Protein determinations were made by the Bio-rad (Bio-Rad, Richmond, Cal.) dye binding assay according to the manufacturer's instruction using bovine serum albumin as standard. Cellular protein was solubilized from culture dishes by the addition of 20 μL of 16 N KOH and assayed directly for protein amount. Suppression values are expressed as the amount of compound required to suppress HMGR activity by 50% relative to that of the controls.

[4] = tested on: cholesterol synthesis in CHO cells; test: De novo cholesterol synthesis: incorporation of radiolabeled acetate into cholesterol in CHO cells; type: cell-based, Chinese Hamster; details: for Cholesterol Synthesis (DPMs): 17 hr + 2 hr with [14C]-acetic acid, Control 38855
Procedure: The ability of the compounds of Formula I to decrease de novo cholesterol synthesis was tested by measuring the incorporation of radiolabeled acetate into cholesterol synthesized in CHO cells. To conduct this experiment, CHO cells were plated at 0.3×10^6 cells per 15×60 mm tissue culture dish in 5 mL of McCoy's modified medium (Gibco Laboratories) containing 1% Cab-O-Sil delipidated FBS and incubated for 48 hours at 37° in a 5% CO2, 95% air environment. Test compounds in a 2.5% suspension of BSA (fatty acid free) in ethanol were then added to the cultures such that the final ethanol and BSA concentrations were 0.5% and […], respectively. Control cultures received ethanol and BSA alone. The cultures containing test compounds were then incubated at 37° in a 5% Co, 95% air environment for 17 hr before the addition of [1,2-^14 C]-acetic acid (57 μCi/mmol); obtained from New England Nuclear, Boston, Mass.) at a concentration of 10 μCi/mL for 2 additional hr.
The cells were harvested by washing the cells twice with 5 mL of cold PBS and scraping the cells into 1 mL PBS. The cell-containing solution was then transferred to 15 mL extraction tubes and treated with 1 mL of 90% methanol (containing 15% KOH, 100 μg/mL butylated hydroxytoluene). All samples were saponified for 1 hr at 80° and the non-saponifiable lipids then extracted with petroleum ether. The petroleum ether fractions were dried under nitrogen, resuspended in ethanol, counted and analyzed by reverse phase HPLC at 45° using an Ultrashpere Octyl column (from Altex Scientific Inc., Berkeley, Calif.) with a mobile phase of acetonitrile:methanol:water (44:44:12). The amount of cholesterol synthesis is measured by the amount of radiolabeled acetate incorporated into the cholesterol peak. The percent of cholesterol synthesis in the treated culture is calculated based upon the control culture.

Compound | IC50 [1] [µM] | Plasma Cholesterol, Treated ([2]; pair-fed control 136.0 ± 4.8) [mg/dL] | IC50 [3] [nM] | Cholesterol Synthesis (DPMs) ([4]; 0.5 μM) | activity at 0.5 µM ([4]; Cricetulus griseus, 19 h, 0.5 μM, percent of control culture (100)) [%] | Plasma Cholesterol, Treated ([2]; pair-fed control 136.0 ± 3.5) [mg/dL] | Cholesterol Synthesis (DPMs) ([4]; 1 μM) | activity at 1 µM ([4]; Cricetulus griseus, 19 h, 1 μM, percent of control culture (100)) [%]
CC(C)CCC[C@@H](C)[C@H]1CC(=NO)[C@@]2(C)C3=CC[C@H]4C(C)(C)[C@@H](O)CC[C@]4(C)[C@H]3CC[C@]12C [Compound 31b, 3β-hydroxy-lanost-7-en-15-oxime] | 55 | 69.6 ± 2.6 | 200 | 24064 | 62 | – | – | –
CC(C)CCC[C@@H](C)[C@H]1C[C@H](O)[C@@]2(O)C3=C(CC[C@]12C)[C@@]1(C)CC[C@H](O)C(C)(C)[C@@H]1CC3 [Compound 34a, 4,4-dimethyl-5α-cholest-8-en-3β,14α,15α-triol] | 3 | – | 500 | – | – | 119.3 ± 2.3 | 16521 | 43
